Test results reported in patent publication US6548543B1, “Remedies or preventives containing cyclopentenone compounds as the active ingredient” (Takara Shuzo Co., Ltd., priority 1998, dated 2003).

Tests used:
Mouse leukemia P-388 = experiment: Survival of mice given mouse leukemia P-388; format: in vivo, DBA/2 mouse; conditions: P-388, single dose 10 mg/kg intraperitoneal
Description: (§1) (1) Mouse leukemia P-388 (1.1×10^6 cells/mouse) was intraperitoneally administered to a 7-weeks old female DBA/2 mouse. Immediately after the administration, a single dose of 10 mg/kg dipropionylcyclopentenone was intraperitoneally administered. On the other hand, saline was intraperitoneally administered to a control group in a similar manner. Survival number of mice, average days of survival and prolongation rate were calculated for 2 groups each consisting of 8 mice.

topoisomerase II = target: T1, topoisomerase II (Homo sapiens, UniProt P11388); experiment: Topoisomerase II inhibition, pBR322 DNA relaxation; format: biochemical; conditions: 37° C., 30 minutes
T1 construct: purchased TopoGEN
Description: (1) 2 μl of topoisomerase II (TopoGEN; 2 units/μl), 2 μl of 10-fold concentrated buffer [0.5 M Tris-HCl (pH 8.0), 1.2 M KCl, 0.1 M MgCl2, 2.5 mM adenosine triphosphate, 5 mM dithiothreitol], 2 μl of 0.1% bovine serum albumin (Takara Shuzo), 11 μl of distilled water and 2 μl of distilled water (control) or 2 μl of one of aqueous solutions of dipropionylcyclopentenone, diisobutyrylcyclopentenone, dibenzoylcyclopentenone, dihexanoylcyclopentenone, di-2-hexenoylcyclopentenone, dimethoxyacetylcyclopentenone, dimethylfumarylcyclopentenone or dimethylmaleylcyclopentenone at varying concentrations were mixed together. 1 μl of 0.25 μg/μl pBR322 DNA (Takara Shuzo) was added thereto. The resulting mixture was reacted at 37° C. After reacting for 30 minutes, 2 μl of an aqueous solution containing 1% sodium dodecyl sulfate, 50% glycerol and 0.02% Bromophenol Blue was added thereto to stop the reaction.
20 μl of the reaction mixture was applied to 1% agarose gel prepared using agarose L03 (Takara Shuzo) and TAE buffer [40 mM Tris, 5 mM sodium acetate, 1 mm ethylenediaminetetraacetic acid disodium salt (EDTA); adjusted to pH 7.8 using acetic acid] and electrophoresed in TAE buffer. After electrophoresis, the gel was soaked in a 1 μg/ml aqueous ethidium bromide solution. The gel was exposed to ultraviolet rays to visualize the electophoretic pattern of DNA.

[1] = system: tumor necrosis factor (TNF)-α; experiment: Endotoxin shock model, serum TNF-α after LPS; format: in vivo, CDF1 mice
Description: (1) A model for endotoxin shock was constructed using CDF1 mice (8 weeks old, female, purchased from Japan SLC). Distilled water (control), or 10 mg/kg of diisopropionylcyclopentenone or diisobutyrylcyclopentenone was subcutaneously administered to a mouse. 20 μg of lipopolysaccharide (LPS; Sigma) was intraperitoneally administered to each mouse 30 minutes after the administration. Blood was collected from the mouse 1.5 hours after the administration with LPS. The amount of tumor necrosis factor (TNF)-α in a serum separated from the collected blood was measured using a commercially available ELISA kit (R&D). Each group consisted of 4 mice.
(2) A model for endotoxin shock was constructed by intraperitoneally administering 20 μg of LPS to a CDF1 mouse (8 weeks old, female). 30 or 100 mg/kg of dipropionylcyclopentenone or diisobutyrylcyclopentenone was orally administered 30 minutes before the administration with LPS. Blood was collected from the mouse 1.5 hours after the administration with LPS. The amount of TNF-α in a serum separated from the collected blood was measured using an ELISA kit. Each group consisted of 4 mice.

[2] = system: adhesion between vascular endothelial cells and HL-60 cells; experiment: Adhesion of HL-60 cells to TNF-α-stimulated vascular endothelial cells; format: cell-based, Human; conditions: for Adhesion rate: TNF-α-stimulated endothelial cells
Description: Human vascular endothelial cells (sold by Sanko Junyaku) suspended in RPMI-1640 medium (Gibco) containing 10% FCS (HyClone) at a concentration of 1×10^5 cells/ml. 100 μl/well of the suspension was seeded into a 96-well microtiter plate.
100 U/ml of human recombinant TNF-α (Promega) was added to monolayer of vascular endothelial cells after incubation at 37° C. for 2 days in a 5% CO2 incubator. The plate was incubated 37° C. for 6 hours in a 5% CO2 incubator to prepare vascular endothelial cells stimulated with TNF-α.
On the other hand, cyclopentenone, GM or dipropionylcyclopentenone at a varying concentration was added to HL-60 cells suspended in RPMI-1640 medium containing 10% FCS at a concentration of 1×10^6 cells/ml. The cells were cultured at 37° C. for 3 hours in a 5% CO2 incubator. After cultivation, 5 μM of 5(-and-6)-carboxyfluorescein diacetate, succinimide ester (Molecular Probe) as a fluorescent agent was added thereto and reacted at 37° C. for 10 minutes. The cells were washed twice with RPMI-1640 medium and suspended in RPMI-1640 medium containing 10% FCS to prepare a suspension of fluorescence-labeled HL-60 cells at a concentration of 1×10^6 cells/ml.
100 μl/well of the fluorescence-labeled HL-60 cells were overlaid onto the vascular endothelial cells stimulated with TNF-α. Cyclopentenone, GM or dipropionylcyclopentenone at a varying concentration was added thereto. The plate was incubated at 37° C. for 20 minutes in a 5% CO2 incubator for adhesion reaction between vascular endothelial cells and HL-60 cells.
After the adhesion reaction, the plate was washed to remove non-adhesive cells. 1% Triton X (Nacalai Tesque) was added thereto to destroy adhesive cells. The fluorescence intensity was measured using filters for 485/22 nm (excitation) and 530/25 nm (emission).
The adhesion rate which represents the ratio of cells adhered to vascular endothelial cells was determined defining the fluorescence intensity for 1×10^5 fluorescence-labeled cells as 100%.

[3] = system: Ehrlich ascites carcinoma (EAC); experiment: Ascitic cancer EAC, prolongation of survival; format: in vivo, ddY mouse; conditions: 5 successive days; for 30-day survival number: groups of 8 mice
Description: (3) The carcinostatic activities of dipropionylcyclopentenone and diisobutyrylcyclopentenone against various ascitic cancers were examined using two types of cancer cells, Ehrlich ascites carcinoma (EAC) and Meth A, administered intraperitoneally or orally at a varying dose.
Dipropionylcyclopentenone or diisobutyrylcyclopentenone was intraperitoneally or orally administered for 5 successive days from the day after the transplantation with cancer cells. Injectable distilled water was administered to a control group in a similar manner. Average days of survival, prolongation rate and 30-day survival number were calculated for groups each consisting of 8 mice.

Meth A tumor cells = experiment: Survival of mice given Meth A tumor cells, single dose; format: in vivo, BALB/c mouse; conditions: single dose 10 mg/kg intraperitoneal
Description: as §1
Similarly, examination was carried out using a system of Meth A tumor cells: BALB/c mouse. As a result, the average days of survival were 13.4 days for the control group. The average days of survival were 16.9 days for the group administered with dipropionylcyclopentenone.

T1 sequence (P11388 whole entry): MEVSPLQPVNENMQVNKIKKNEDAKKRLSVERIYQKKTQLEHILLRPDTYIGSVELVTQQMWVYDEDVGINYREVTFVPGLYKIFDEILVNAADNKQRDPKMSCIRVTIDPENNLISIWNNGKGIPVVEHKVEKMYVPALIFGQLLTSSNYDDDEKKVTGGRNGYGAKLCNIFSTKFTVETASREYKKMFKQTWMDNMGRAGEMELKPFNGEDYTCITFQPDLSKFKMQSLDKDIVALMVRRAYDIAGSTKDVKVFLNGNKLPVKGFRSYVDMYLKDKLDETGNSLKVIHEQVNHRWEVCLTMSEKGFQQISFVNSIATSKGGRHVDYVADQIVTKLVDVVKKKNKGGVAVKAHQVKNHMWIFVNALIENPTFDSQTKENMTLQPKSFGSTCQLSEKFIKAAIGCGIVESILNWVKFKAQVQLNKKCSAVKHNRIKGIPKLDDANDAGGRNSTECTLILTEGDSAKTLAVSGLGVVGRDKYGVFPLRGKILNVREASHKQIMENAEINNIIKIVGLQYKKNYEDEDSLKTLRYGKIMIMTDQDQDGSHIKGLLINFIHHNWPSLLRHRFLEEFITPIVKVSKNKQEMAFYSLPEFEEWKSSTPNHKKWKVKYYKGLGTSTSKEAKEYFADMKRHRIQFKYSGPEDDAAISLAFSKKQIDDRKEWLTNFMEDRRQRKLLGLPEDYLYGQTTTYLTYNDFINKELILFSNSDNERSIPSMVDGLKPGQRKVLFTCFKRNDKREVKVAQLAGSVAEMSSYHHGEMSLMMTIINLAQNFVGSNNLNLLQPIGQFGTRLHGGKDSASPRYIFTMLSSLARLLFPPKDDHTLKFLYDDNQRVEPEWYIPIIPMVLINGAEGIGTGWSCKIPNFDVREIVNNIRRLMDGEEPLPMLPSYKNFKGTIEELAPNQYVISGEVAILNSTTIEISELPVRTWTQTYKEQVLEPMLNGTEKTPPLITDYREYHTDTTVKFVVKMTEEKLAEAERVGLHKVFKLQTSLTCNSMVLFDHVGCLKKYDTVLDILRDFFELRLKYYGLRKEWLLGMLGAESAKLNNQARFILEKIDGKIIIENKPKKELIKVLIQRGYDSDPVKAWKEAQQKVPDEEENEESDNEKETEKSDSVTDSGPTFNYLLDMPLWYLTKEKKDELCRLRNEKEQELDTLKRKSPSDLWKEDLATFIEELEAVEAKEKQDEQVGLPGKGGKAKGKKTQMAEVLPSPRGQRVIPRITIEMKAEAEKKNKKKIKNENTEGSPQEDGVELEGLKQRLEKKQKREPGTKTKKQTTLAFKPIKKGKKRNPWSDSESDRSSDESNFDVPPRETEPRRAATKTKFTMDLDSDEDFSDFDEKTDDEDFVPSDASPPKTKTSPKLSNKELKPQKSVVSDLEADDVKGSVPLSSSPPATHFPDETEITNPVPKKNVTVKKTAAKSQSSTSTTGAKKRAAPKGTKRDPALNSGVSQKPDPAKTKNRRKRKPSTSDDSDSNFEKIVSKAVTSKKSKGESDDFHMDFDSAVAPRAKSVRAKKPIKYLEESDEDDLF

## CCC(=O)OC1C=CC(=O)C1OC(=O)CC (stereo not drawn)
Mouse leukemia P-388
  Average days of survival: 13.9 days
  Prolongation rate: 137.0%
Topoisomerase II
  Concentration at which change of DNA from superhelical type to relaxed type was partially or completely inhibited: ≥ 0.1 µM
[1]; 10 mg/kg subcutaneous
  TNF-α production compared with control group (statement): significantly suppressed
[1]; 10 mg/kg subcutaneous 30 minutes before LPS, serum 1.5 hours after LPS
  Amount of TNF mean ± SE: 4.61 ± 0.57 ng/mL
[1]; 30 mg/kg oral 30 minutes before LPS, serum 1.5 hours after LPS
  TNF mean ± SE: 2.95 ± 0.14 ng/mL
[1]; 100 mg/kg oral 30 minutes before LPS, serum 1.5 hours after LPS
  TNF mean ± SE: 1.26 ± 0.15 ng/mL
[1]; oral 30 or 100 mg/kg
  TNF production compared with control group (statement): suppressed the TNF production in a dose-dependent manner
[2]; 0.1 μM
  Adhesion rate: 49.2%
[2]; 1 μM
  Adhesion rate: 35.1%
[2]; 10 μM
  Adhesion rate: 15.3%
[2]; 100 μM
  Adhesion rate: 15.5%
[2]; 10^−7 to 10^−4 M, dose-dependent
  Suppression of TNF-α-induced increase in adhesion rate (statement): suppressed
[3]; intraperitoneal 10 mg/kg
  Average days of survival: 28.1 days
  Prolongation rate: >225%
  30-day survival number: 6
[3]; oral 30 mg/kg
  Average days of survival: 24.1 days
  Prolongation rate: >193%
  30-day survival number: 4
Meth A tumor cells
  Average days of survival: 16.9 days
  Prolongation rate: 126.2%
